Data from ChEMBL document CHEMBL4184207, “Novel compounds with potent CDK9 inhibitory activity for the treatment of myeloma” (Bioorg Med Chem Lett, 2018).

Assays:
[1] = target: CDK9/cyclin T1 (Homo sapiens, UniProt P50750); assay: Inhibition of N-terminal GST-HIS6 fusion protein tagged human full length CDK9 (M1 to F372 residues)/N-terminal GST-HIS6 fusion protein tagged human Cyclin-T1 (M1 to K726 residues) expressed in Sf9 cells at 10 uM using TAMRA-Rbtide substrate and ATP incubated for 1 hr by fluorescent polarization assay
Chain of CDK9/cyclin T1 (O60563 whole entry, the tested form may be a part): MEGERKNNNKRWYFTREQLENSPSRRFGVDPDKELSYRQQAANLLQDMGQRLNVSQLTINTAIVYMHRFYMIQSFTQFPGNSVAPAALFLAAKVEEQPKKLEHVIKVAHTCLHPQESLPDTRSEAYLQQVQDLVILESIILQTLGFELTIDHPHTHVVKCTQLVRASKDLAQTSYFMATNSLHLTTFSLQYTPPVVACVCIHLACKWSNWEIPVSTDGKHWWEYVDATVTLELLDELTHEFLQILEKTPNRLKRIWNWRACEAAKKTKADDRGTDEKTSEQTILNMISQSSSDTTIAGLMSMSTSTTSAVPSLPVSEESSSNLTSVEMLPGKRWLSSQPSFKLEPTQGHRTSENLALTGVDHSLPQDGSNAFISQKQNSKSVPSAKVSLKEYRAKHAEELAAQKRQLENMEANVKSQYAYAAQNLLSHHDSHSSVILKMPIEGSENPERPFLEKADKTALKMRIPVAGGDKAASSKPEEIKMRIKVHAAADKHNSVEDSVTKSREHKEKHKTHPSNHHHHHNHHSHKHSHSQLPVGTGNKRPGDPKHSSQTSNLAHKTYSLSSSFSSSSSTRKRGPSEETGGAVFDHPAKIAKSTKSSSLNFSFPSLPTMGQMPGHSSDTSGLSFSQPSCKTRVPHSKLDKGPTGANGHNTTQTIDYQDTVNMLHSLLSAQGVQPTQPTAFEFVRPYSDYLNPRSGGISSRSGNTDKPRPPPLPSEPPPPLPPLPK
Chain of CDK9/cyclin T1 (P50750 whole entry, the tested form may be a part): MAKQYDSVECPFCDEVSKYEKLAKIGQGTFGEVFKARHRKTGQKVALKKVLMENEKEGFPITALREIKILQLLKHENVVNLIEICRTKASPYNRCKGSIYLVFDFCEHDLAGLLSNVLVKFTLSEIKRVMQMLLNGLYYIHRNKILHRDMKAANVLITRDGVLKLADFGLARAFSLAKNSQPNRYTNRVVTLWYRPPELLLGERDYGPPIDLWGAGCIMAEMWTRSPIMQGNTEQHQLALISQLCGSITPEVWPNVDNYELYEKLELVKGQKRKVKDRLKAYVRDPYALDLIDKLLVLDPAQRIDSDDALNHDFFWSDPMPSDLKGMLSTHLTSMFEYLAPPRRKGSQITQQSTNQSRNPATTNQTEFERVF

[2] = target: T1, Serine/threonine-protein kinase PLK1 (Homo sapiens, UniProt P53350); assay: Inhibition of human PLK1 kinase domain at 10 uM using 5-TAMRA-RGSFNDTLDFD-NH2 substrate and ATP incubated for 90 mins by fluorescent polarization assay
T1 sequence (P53350 whole entry, the tested form may be a part): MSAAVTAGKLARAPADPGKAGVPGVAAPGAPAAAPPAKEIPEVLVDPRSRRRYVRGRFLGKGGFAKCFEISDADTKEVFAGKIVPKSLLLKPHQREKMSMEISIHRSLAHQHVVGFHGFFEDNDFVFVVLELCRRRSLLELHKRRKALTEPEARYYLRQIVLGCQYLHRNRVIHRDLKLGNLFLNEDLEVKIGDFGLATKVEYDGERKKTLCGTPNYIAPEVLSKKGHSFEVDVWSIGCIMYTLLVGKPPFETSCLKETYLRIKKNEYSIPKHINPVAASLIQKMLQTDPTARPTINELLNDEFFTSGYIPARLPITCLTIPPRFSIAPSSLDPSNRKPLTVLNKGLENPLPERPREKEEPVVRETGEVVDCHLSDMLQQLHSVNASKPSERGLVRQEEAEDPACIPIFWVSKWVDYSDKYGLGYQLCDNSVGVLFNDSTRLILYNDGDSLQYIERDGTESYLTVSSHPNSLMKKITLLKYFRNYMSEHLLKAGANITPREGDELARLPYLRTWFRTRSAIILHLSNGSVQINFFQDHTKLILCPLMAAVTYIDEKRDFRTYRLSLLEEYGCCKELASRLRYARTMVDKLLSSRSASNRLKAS

[3] = target: CDK7/Cyclin H/MNAT1 (Homo sapiens) (UniProt P51946+P50613+P51948); assay: Inhibition of N-terminal GST-HIS6 fusion protein tagged human CDK7 (M1 to F346 residues)/N-terminal HIS6-tagged human Cyclin-H (M1 to L323 residues)/N-terminal HIS6-tagged human MAT1 (M1 to S306 residues) expressed in Sf9 cells at 1 uM using RB-CTF substrate and ATP incubated for 1 hr by fluorescent polarization assay
[4] = tested on: RPMI-8226; assay: Antiproliferative activity against human RPMI8226 cells assessed as inhibition of cell proliferation incubated for 72 hrs by Cell-titer-Glo luminescent cell viability assay; assay type: functional, cell-based; settings: RPMI-8226, 72 h
[5] = target: CDK2/Cyclin A2 (Homo sapiens) (UniProt P24941+P20248); assay: Inhibition of human full length CDK2 (M1 to L298 residues)/human full length Cyclin-A2 (M1 to L432 residues) expressed in Sf9 cells at 1 uM using TAMRA-histone H1-derived peptide substrate and ATP incubated for 1 hr by fluorescent polarization assay
[6] = target: T1, Serine/threonine-protein kinase PLK1; assay: Inhibition of human PLK1 kinase domain using 5-TAMRA-RGSFNDTLDFD-NH2 substrate and ATP incubated for 90 mins by fluorescent polarization assay

| Structure (SMILES) | IC50 [1] [nM] | also measured |
| --- | --- | --- |
| COc1ccc(-c2ccnc(Nc3ccc(S(=O)(=O)Nc4onc(C)c4C)cc3)n2)c(OC)c1 | 9 | inhibition [2]: 34% |
| COc1cccc(F)c1-c1ccnc(Nc2ccc(S(=O)(=O)Nc3onc(C)c3C)cc2)n1 | 1 | inhibition [3]: 1%; IC50 [4]: 26600 nM; inhibition [5]: 44%; IC50 [6]: 12400 nM |
| COc1cccc(Cl)c1-c1ccnc(Nc2ccc(S(=O)(=O)Nc3onc(C)c3C)cc2)n1 | 25 | – |
| CCOc1cc(Cl)ccc1-c1ccnc(Nc2cc(C(N)=O)c(OC)cc2F)n1 | > 12500 | – |
| COc1ccc(F)cc1-c1ccnc(Nc2ccc(S(=O)(=O)Nc3onc(C)c3C)cc2)n1 | 9 | – |
| COc1cc(F)ccc1-c1ccnc(Nc2ccc(S(=O)(=O)Nc3noc4ccccc34)cc2)n1 | 5 | IC50 [4]: 15500 nM |
| COc1cc(F)c(F)cc1-c1ccnc(Nc2ccc(S(=O)(=O)Nc3onc(C)c3C)cc2)n1 | 8 | inhibition [2]: 37% |
| COc1cc(F)ccc1-c1ccnc(Nc2ccc(S(=O)(=O)Nc3onc(C)c3C)cc2)n1 | 2 | inhibition [2]: 35%; inhibition [3]: 3%; inhibition [5]: 43%; IC50 [6]: > 12500 nM |
| Cc1cc(F)ccc1-c1ccnc(Nc2ccc(S(=O)(=O)Nc3onc(C)c3C)cc2)n1 | 6 | – |
| COc1cc(F)ccc1-c1ccnc(Nc2ccc(C(=O)O)cc2)n1 | 66 | – |
| COc1ccc(F)cc1-c1ccnc(Nc2ccc(S(=O)(=O)Nc3nnc(C)s3)cc2)n1 | 9 | – |
| COc1cccc(F)c1-c1ccnc(Nc2cccc(Cn3cnc4ccccc43)c2)n1 | 2 | inhibition [3]: 0%; IC50 [4]: 1780 nM; inhibition [5]: 44%; IC50 [6]: > 12500 nM |
| COc1cc(F)c(Nc2nccc(-c3ccccc3OC)n2)cc1C(N)=O | 1580 | IC50 [4]: 21500 nM |
| COc1cccc(F)c1-c1ccnc(Nc2ccc(S(=O)(=O)Nc3nccs3)cc2)n1 | 2 | inhibition [3]: 0%; inhibition [5]: 46%; IC50 [6]: > 12500 nM |
| CCOc1cc(Cl)ccc1-c1ccnc(Nc2ccc(S(=O)(=O)Nc3nnc(C)s3)cc2)n1 | 5 | – |
| COc1cc(F)ccc1-c1ccnc(Nc2ccc(C(=O)Nc3onc(C)c3C)cc2)n1 | 135 | – |
| Cc1noc(NS(=O)(=O)c2ccc(Nc3nccc(-c4cccc(OC(C)C)c4F)n3)cc2)c1C | 458 | inhibition [2]: 65% |
| Cc1noc(NS(=O)(=O)c2ccc(Nc3nccc(-c4ccc(Cl)cc4Cl)n3)cc2)c1C | 50 | – |
| COc1ccccc1-c1ccnc(Nc2ccc(S(=O)(=O)Nc3nnc(C)s3)cc2)n1 | 12 | – |
| COc1cc(F)ccc1-c1ccnc(Nc2ccc(S(=O)(=O)Nc3nnc(C)s3)cc2)n1 | 6 | – |
| COc1ccc(F)c(F)c1-c1ccnc(Nc2ccc(S(=O)(=O)Nc3onc(C)c3C)cc2)n1 | 1 | inhibition [2]: 75%; inhibition [3]: 2%; inhibition [5]: 83%; IC50 [6]: 5910 nM |
| COc1cc(F)ccc1-c1ccnc(Nc2cccc(Cn3cnc4ccccc43)c2)n1 | 4 | – |
| COc1cc(F)c(-c2ccnc(Nc3ccc(S(=O)(=O)Nc4onc(C)c4C)cc3)n2)c(F)c1 | 21 | – |
| COc1cc(F)c(Nc2nccc(-c3ccc(F)cc3F)n2)cc1C(N)=O | > 12500 | – |
| CCOc1cc(F)ccc1-c1ccnc(Nc2cc(C(N)=O)c(OC)cc2F)n1 | > 12500 | – |
| COc1cccc(F)c1-c1ccnc(Nc2ccc(S(=O)(=O)Nc3nnc(C)s3)cc2)n1 | 2 | inhibition [3]: 2%; inhibition [5]: 29%; IC50 [6]: > 12500 nM |

| Structure (SMILES) | IC50 [1] [nM] | also measured |
| --- | --- | --- |
| CCOc1cc(Cl)ccc1-c1ccnc(Nc2ccc(S(=O)(=O)Nc3nccs3)cc2)n1 | 378 | – |
| CSc1cc(F)ccc1-c1ccnc(Nc2ccc(S(=O)(=O)Nc3onc(C)c3C)cc2)n1 | 13 | – |
| COc1cc(F)c(Nc2nccc(-c3c(F)cccc3OC)n2)cc1C(N)=O | > 12500 | IC50 [4]: 20500 nM |
| COc1cc(F)ccc1-c1ccnc(Nc2ccc(S(=O)(=O)Nc3nccs3)cc2)n1 | 122 | – |
| Cc1noc(NS(=O)(=O)c2ccc(Nc3nccc(-c4ccc(F)cc4OC(C)C)n3)cc2)c1C | 49 | inhibition [2]: 13% |
| COc1cc(F)c(Nc2nccc(-c3ccc(F)cc3OC(C)C)n2)cc1C(N)=O | > 12500 | – |
| CCOc1cc(F)ccc1-c1ccnc(Nc2ccc(S(=O)(=O)Nc3nccs3)cc2)n1 | 210 | – |
| COc1cc(F)c(F)cc1-c1ccnc(Nc2ccc(S(=O)(=O)Nc3nnc(C)s3)cc2)n1 | 10 | – |
| COc1ccc(-c2ccnc(Nc3ccc(S(=O)(=O)Nc4nnc(C)s4)cc3)n2)c(OC)c1 | 14 | – |
| COc1cc(F)c(Nc2nccc(-c3cc(F)c(F)cc3OC)n2)cc1C(N)=O | > 12500 | – |
| CCOc1cc(F)ccc1-c1ccnc(Nc2ccc(S(=O)(=O)Nc3nnc(C)s3)cc2)n1 | 2 | – |
| CCOc1cccc(F)c1-c1ccnc(Nc2ccc(S(=O)(=O)Nc3onc(C)c3C)cc2)n1 | 2 | inhibition [3]: 0%; inhibition [5]: 14%; IC50 [6]: > 12500 nM |
| COc1cc(F)c(Nc2nccc(-c3ccc(F)cc3OC)n2)cc1C(N)=O | > 12500 | – |
| COc1ccc(F)c(F)c1-c1ccnc(Nc2ccc(S(=O)(=O)Nc3nnc(C)s3)cc2)n1 | 0.4 | inhibition [3]: 7%; IC50 [4]: 11700 nM; inhibition [5]: 50%; IC50 [6]: > 12500 nM |
| COc1ccccc1-c1ccnc(Nc2ccc(S(=O)(=O)Nc3onc(C)c3C)cc2)n1 | 3 | inhibition [2]: 56%; IC50 [4]: 29200 nM |
| COc1ccccc1-c1ccnc(Nc2cccc(Cn3cnc4ccccc43)c2)n1 | 3 | inhibition [3]: 0%; IC50 [4]: 1340 nM; inhibition [5]: 9%; IC50 [6]: > 12500 nM |
| COc1cc(F)ccc1-c1ccnc(Nc2ccc(S(=O)(=O)Nc3noc(C)c3C)cc2)n1 | 3 | inhibition [3]: 0%; inhibition [5]: 0%; IC50 [6]: > 12500 nM |
| COc1ccccc1-c1ccnc(Nc2ccc(S(=O)(=O)Nc3noc(C)c3C)cc2)n1 | 4 | IC50 [4]: 12300 nM |
| Cc1noc(NS(=O)(=O)c2ccc(Nc3nccc(-c4ccc(F)cc4Cl)n3)cc2)c1C | 55 | – |
| COc1cc(F)ccc1-c1ccnc(Nc2ccc(-c3c(C)noc3C)cc2)n1 | > 12500 | – |
| COc1cc(Cl)ccc1-c1ccnc(Nc2ccc(S(=O)(=O)Nc3onc(C)c3C)cc2)n1 | 12 | – |
| COc1cc(F)ccc1-c1cc(Nc2ccc(S(=O)(=O)Nc3onc(C)c3C)cc2)ncn1 | 40 | – |
| Cc1noc(NS(=O)(=O)c2ccc(Nc3nccc(-c4ccc(F)cc4F)n3)cc2)c1C | 11 | inhibition [2]: 55% |
| COc1ccccc1-c1ccnc(Nc2ccc(S(=O)(=O)Nc3nccs3)cc2)n1 | 33 | IC50 [4]: 24700 nM |
| CCOc1cc(F)ccc1-c1ccnc(Nc2ccc(S(=O)(=O)Nc3onc(C)c3C)cc2)n1 | 8 | inhibition [2]: 11% |
| CCOc1cc(Cl)ccc1-c1ccnc(Nc2ccc(S(=O)(=O)Nc3onc(C)c3C)cc2)n1 | 17 | inhibition [2]: 5% |
